Converted amounts (≈) assume the structure as drawn.
Tests used:
[1] = tested on: A549 human lung carcinoma cells; assay: Cell-based EC50 determination, A549 cells (CellTiter-Glo cell viability); settings: A549, 24 h, read-out: A549 EC50 24h
Experimental: A549 human lung carcinoma cells were cultured in RPMI 1640 medium (Sigma) supplemented with 10% fetal bovine serum (Sigma) and Antibiotic-Antimycotic (Sigma) in tissue culture flasks at 37°C in a humidified 5% CO2 atmosphere. Cells were routinely assayed for mycoplasma contamination.
Two thousand cells were plated in 384-well tissue culture plates, and treated after 24 hours with a 10-point dilution series of the compounds (1.5 nM-30 uM), using the vehicle, DMSO as control. Cells were incubated for 24 hours after which the relative cell density was determined by CellTiter-Glo Luminescent Cell Viability Assay (Promega). This method determines the number of metabolically active cells in the culture based on quantitation of the ATP present. The luminescent signal was measured with an Analyst GT multimode reader (Molecular Devices). […]

[2] = tested on: HKE3 human colon carcinoma cell line; assay: In vitro growth inhibition of colon carcinoma cells, HKE3 (CellTiter-Glo); assay type: cell-based; settings: 72 hours incubation
human Ack1 kinase = human Ack1 kinase (Homo sapiens, UniProt Q07912); assay: In vitro Ack1 assay (TranScreener ADP2 FP, generation of ADP); assay type: biochemical; settings: 12.5 uM compound; 3.5 µM ATP; read-out: Ack1 inh% @12.5 uM
human Ack1 kinase, sequence (Q07912 whole entry): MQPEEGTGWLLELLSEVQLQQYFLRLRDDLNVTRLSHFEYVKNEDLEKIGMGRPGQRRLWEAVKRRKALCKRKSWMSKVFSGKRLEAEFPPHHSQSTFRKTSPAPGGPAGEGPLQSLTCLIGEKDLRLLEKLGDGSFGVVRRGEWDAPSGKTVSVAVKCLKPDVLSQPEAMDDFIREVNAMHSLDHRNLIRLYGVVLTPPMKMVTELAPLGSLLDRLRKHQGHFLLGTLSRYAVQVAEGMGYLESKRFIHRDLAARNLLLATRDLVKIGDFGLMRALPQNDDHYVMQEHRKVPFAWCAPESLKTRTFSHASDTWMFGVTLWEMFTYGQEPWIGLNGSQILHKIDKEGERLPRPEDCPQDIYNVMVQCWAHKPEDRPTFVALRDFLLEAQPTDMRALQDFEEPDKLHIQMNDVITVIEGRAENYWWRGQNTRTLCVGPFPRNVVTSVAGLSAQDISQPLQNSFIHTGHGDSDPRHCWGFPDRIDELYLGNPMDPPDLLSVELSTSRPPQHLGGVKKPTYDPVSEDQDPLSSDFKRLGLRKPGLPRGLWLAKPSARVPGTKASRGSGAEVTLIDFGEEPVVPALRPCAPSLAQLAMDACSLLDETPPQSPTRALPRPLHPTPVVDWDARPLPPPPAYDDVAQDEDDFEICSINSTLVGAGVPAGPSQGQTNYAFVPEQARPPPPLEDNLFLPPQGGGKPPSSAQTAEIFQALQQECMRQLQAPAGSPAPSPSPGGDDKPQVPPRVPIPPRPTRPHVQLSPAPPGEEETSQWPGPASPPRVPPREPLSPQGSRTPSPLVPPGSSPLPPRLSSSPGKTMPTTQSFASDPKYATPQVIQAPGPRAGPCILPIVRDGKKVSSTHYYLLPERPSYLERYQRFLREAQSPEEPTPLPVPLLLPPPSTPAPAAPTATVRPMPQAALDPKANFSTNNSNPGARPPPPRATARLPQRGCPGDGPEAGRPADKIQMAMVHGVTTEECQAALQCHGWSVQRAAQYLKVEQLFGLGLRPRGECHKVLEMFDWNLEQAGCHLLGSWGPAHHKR
Experimental: The activity of the compounds described in the present invention can be determined by the following kinase assay, which measures the generation of ADP by human Ack1 kinase by fluorescent polarization using a commercially available TranScreener ADP2 FP Assay Kit (BellBrook Labs).
Ack1 kinase assays were performed in low protein binding 384-well plates (Corning). Test compounds were diluted in 100% DMSO to 5 mM stock concentration and then further dilutions were made in H2O or 100% DMSO to desirable concentrations.
Each reaction consisted of 5 nM enzyme: Ack1 kinase, Poly Glu-Tyr (4:1) (Sigma), 3.5 µM ATP and kinase buffer: 20 mM HEPES pH7.5, 1 mM DTT, 2 mM MgCl2, 0.4 mM MnCl2, 0.01 V/V% Tween20 (all reagents from Sigma-Aldrich)
For each reaction, 4 or 6 µl containing Poly Glu-Tyr (4:1), ATP and kinase buffer were combined with 2 µl diluted compound in H2O or 0.02 µl compound in 100% DMSO. The kinase reaction was started by the addition of 2 µl diluted enzyme. The reaction was allowed to run for 1 hour at room temperature. The reaction was stopped by addition of 8 µl ADP detection mixture (1 x) (1 x Detection buffer + 4.78 µg/ml ADP2 Ab + 4 nM ADP Alexa633 Tracer). After an additional hour, fluorescent polarization (Ex: 630-35 nm, Em: 680-30 nm, Dich: 650 nm) was measured using an Analyst GT (Molecular Devices).

human Clk1 kinase = biological target: T1, human Clk1 kinase (Homo sapiens, UniProt P49759); assay: In vitro Clk1 assay (IMAP fluorescence polarization); assay type: biochemical; settings: 0.45 µM ATP
T1 construct: Each reaction consisted of 4 nM enzyme: Clk1 kinase domain
T1 sequence (P49759 161-477 limits assumed): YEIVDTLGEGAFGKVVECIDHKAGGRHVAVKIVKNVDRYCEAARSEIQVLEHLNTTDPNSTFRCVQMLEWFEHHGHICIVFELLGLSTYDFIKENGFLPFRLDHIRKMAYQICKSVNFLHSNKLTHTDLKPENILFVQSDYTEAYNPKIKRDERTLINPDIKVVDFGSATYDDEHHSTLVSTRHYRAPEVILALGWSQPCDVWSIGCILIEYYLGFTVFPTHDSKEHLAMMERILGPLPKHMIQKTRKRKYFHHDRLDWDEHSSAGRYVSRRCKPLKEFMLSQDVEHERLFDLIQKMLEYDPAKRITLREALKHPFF
Experimental: The activity of the compounds described in the present invention can be determined by the following kinase assay, which measures the phosphorylation of a fluorescently-labeled peptide by human Clk1 kinase by fluorescent polarization using a commercially available IMAP Screening Express Assay Kit (Molecular Devices).
Clk1 kinase assays were performed in low protein binding 384-well plates (Corning). Test compounds were diluted in 100% DMSO to 5 mM stock concentration and then further dilutions were made in H2O or 100% DMSO to desirable concentrations.
Each reaction consisted of 4 nM enzyme: Clk1 kinase domain, 400 nM TAMRA-AFRREWSPGKEAKK-NH2 (Genecust), 0.45 µM ATP (Sigma) and kinase buffer: 20 mM TRIS pH 8, 1 mM DTT, 0.4 mM MgCl2, 0.4 mM MnCl2, 0.01 V/V% Tween20 (all reagents from Sigma-Aldrich)
(§1) For each reaction, 4 or 6 µl containing TAMRA-peptide, ATP and kinase buffer were combined with 2 µl diluted compound in H2O or 0.02 µl compound in 100% DMSO. The kinase reaction was started by the addition of 2 µl diluted enzyme. The reaction was allowed to run for 1 hour at room temperature. The reaction was stopped by adding 15 µl IMAP beads (1:600 beads in progressive (80 % buffer A, 20% buffer B) 1x buffer). After an additional hour, fluorescent polarization (Ex: 550-10 nm, Em: 590-10 nm, Dich: 561 nm) was measured using an Analyst GT (Molecular Devices).

[3] = tested on: HCT-116 human colon carcinoma cell line; assay: In vitro growth inhibition of colon carcinoma cells, HCT-116 (CellTiter-Glo); assay type: cell-based; settings: 72 hours incubation, read-out: HCT116 EC50
human Akt1 kinase = human Akt1 kinase (Homo sapiens, UniProt P31749); assay: In vitro Akt1 assay (IMAP fluorescence polarization, phosphorylation of TAMRA-peptide); assay type: biochemical; settings: 40 µM ATP
human Akt1 kinase, sequence (P31749 whole entry): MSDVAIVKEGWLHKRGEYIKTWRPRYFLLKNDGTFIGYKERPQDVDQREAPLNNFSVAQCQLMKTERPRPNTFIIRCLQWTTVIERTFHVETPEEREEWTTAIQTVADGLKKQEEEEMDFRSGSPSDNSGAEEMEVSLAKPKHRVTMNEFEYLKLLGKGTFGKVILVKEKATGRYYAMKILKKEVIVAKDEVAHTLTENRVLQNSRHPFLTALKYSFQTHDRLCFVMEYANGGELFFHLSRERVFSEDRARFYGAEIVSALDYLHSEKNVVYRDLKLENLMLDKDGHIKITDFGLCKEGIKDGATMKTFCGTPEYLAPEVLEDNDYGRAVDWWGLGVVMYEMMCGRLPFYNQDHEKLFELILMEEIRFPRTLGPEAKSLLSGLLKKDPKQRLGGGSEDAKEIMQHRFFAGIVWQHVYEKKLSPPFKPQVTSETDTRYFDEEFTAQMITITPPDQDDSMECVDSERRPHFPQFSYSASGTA
Experimental: The inhibition of Akt1 by the compounds described in the present invention were determined measuring the phosphorylation of a fluorescently-labeled peptide (TAMRA-peptide) by human Akt1 kinase by fluorescent polarization using a commercially available IMAP Screening Express Assay Kit (Molecular Devices).
Akt1 kinase assays were performed in low protein binding 384-well plates (Corning). Test compounds were diluted in 100% DMSO to 5 mM stock concentration and then further dilutions were made in H2O or 100% DMSO to desirable concentrations.
Each reaction consisted of 5 nM enzyme: Akt1 kinase, 400 nM TAMRA-peptide (5-TAMRA-GRTGRRNSI-COOH; Genecust), 40 µM ATP and kinase buffer: 20 mM MES pH6, 1 mM DTT, 10 mM MgCl2, 2 mM MnCl2, 0.01 V/V% TritonX (all reagents from Sigma-Aldrich).
as §1, with “(1:400” for “(1:600”, “(75%” for “(80 %”, “25%” for “20%”

[4] = tested on: H1 N1 influenza virus strain A/WSN/33; assay: microbe, parasite or virus in culture; assay type: cell-based; settings: 36 h, read-out: Influenza replication IC50
physchem = assay type: physicochemical; settings: kinetic from dmso stock
Experimental: Samples were diluted in DMSO (control), phosphate buffer pH = 7.4 and pH = 2.0, from 5mM stock solutions (solved in DMSO), with a 120 µM final concentration. The samples were incubated for 24 hours at room temperature followed by 30 minutes centrifugation at 3700 rpm. 40 µl of the supernatants were injected into HPLC (Waters 2795 Alliance HPLC equipped with Waters 996 PDA Detector (HPLC column: Waters XBridge, RP C18, 3.5 µm, 4.6 mm x 50 mm; gradient MeCN/H2O, containing 0.1% HCOOH: 5% MeCN (0.5 min), 5% to 95% MeCN (5 min), 95% MeCN (0.5 min); flow rate: 2.0 ml/min)) and the AUC values (measured on sample specific wavelength) of the buffered samples were divided by the AUC values (same wavelength as buffered samples') of the DMSO control samples. Table 3: Solubility in water for several compounds according to general formula (I)

[5] = tested on: HepG2 hepatoblastomaderived cell line; assay: In vitro growth inhibition, HepG2 (CellTiter-Glo); assay type: cell-based; settings: Homo sapiens, 72 hours incubation

With `C[C@H](NC(=O)c1ccc2c(c1)/C(=C(/Nc1ccc(CN3CCCCC3)cc1)c1ccccc1)C(=O)N2)c1ccccc1` [Compound 30, (3Z)-2-oxo-N-[(1S)-1-phenylethyl]-3-(phenyl{[4-(piperidin-1-ylmethyl)phenyl]amino}methylene)indoline-5-carboxamide] as the molecule, how does the EC50 [1] read?
The EC50 was 5980 nM.

What about the EC50 [2] of the same molecule?
Its EC50 is 10 nM.

What about the inhibition at 12.5 µM (human Ack1 kinase) of the same molecule?
The inhibition at 12.5 µM was 80.5%.

And the IC50 (human Clk1 kinase)?
Its IC50 is 10 nM.

What about the EC50 [3] of the same molecule?
Its EC50 is 10 nM.

What about the inhibition at 12.5 µM (human Akt1 kinase; 12.5 uM compound, read-out: Akt1 inh% @12.5 uM) of the same molecule?
Its inhibition at 12.5 µM is 93%.

And the IC50 (human Akt1 kinase)?
Its IC50 is 1300 nM.

What about the IC50 [4] of the same molecule?
Its IC50 is under 10 nM.

And the solubility at 24 h (physchem; pH 2, aqueous buffer)?
Its solubility at 24 h is 110 to 120 µM (≈ 61.2 to 66.8 µg/mL).

What about the solubility at 24 h (physchem; pH 7.4, aqueous buffer) of the same molecule?
The solubility at 24 h was under 10 µM.

And the EC50 [5]?
The EC50 was 580 nM.
